In a flash point compilation (Sun et al. 2020) one finds flash point data, which are given here for 111 compounds.

Assay in data set [1]: not given
This is another data set of the same source.

Each structure is given as a SMILES string. Counter-ions that a name gives are not always drawn.

For `Cc1ccc(C)c(C)c1C` [1,2,3,4-TETRAMETHYLBENZENE], the flash point is 68.0 °C.

Compound `Cc1ccc(C)c(C)c1C` [1,2,3,4-Tetramethylbenzene] displayed a flash point of 74.0 °C.

`Cc1cccc(C)c1C` [1,2,3-TRIMETHYLBENZENE] came in with a flash point of 44.0 °C.

In the case of `Cc1cccc(C)c1C` [1,2,3-Trimethylbenzene], the flash point is 51.0 °C.

In the case of `Cc1cc(C)c(C)cc1C` [1,2,4,5-TETRAMETHYLBENZENE], the flash point is 55 °C.

Take `Cc1cc(C)c(C)cc1C` [1,2,4,5-Tetramethylbenzene]: the flash point worked out at 73.0 °C.

Compound `COCC(C)OC` (stereo unspecified) [1,2-DIMETHOXYPROPANE] came in with a flash point of 0.6 °C.

Consider `COCC(C)OC` (stereo unspecified) [1,2-Dimethoxypropane], for which the flash point was -0.0 °C.

`NCCCN` [1,3-Diaminopropane] showed a flash point of 49.0 °C.

Take `CCc1cccc(CC)c1` [1,3-Diethylbenzene]: the flash point amounted to 56 °C.

`C=CC(C)C` [1-Butene, 3-methyl-] returned a flash point of -55.9 °C.

The compound `CCCCOCC(C)O` (stereo unspecified) [1-Butoxy-2-propanol] gave a flash point of 59.0 °C.

Compound `C=CCCCCCCCCCCCCCC` [1-HEXADECENE] registered a flash point of 132.0 °C.

For the compound `CCCCCC=O` [1-HEXANAL], the flash point worked out at 27 °C.

Consider `C=C(C)CCCC` [1-Hexene, 2-methyl-], for which the flash point was -6.0 °C.

`C=CC(C)CCC` (stereo unspecified) [1-Hexene, 3-methyl-] showed a flash point of -6.0 °C.

In the case of `C=CCCCCCCC` [1-NONENE], the flash point stood at 22 °C.

`C=CCCCCCCC` [1-Nonene]: the flash point was 26.0 °C.

`CCCCCCCCO` [1-OCTANOL]: the flash point stood at 84 °C.

Compound `C=CCCCCCC` [1-OCTENE] gave a flash point of 8 °C.

Regarding `C=CCCCCCCCCCCCCCCCC` [1-Octadecene], the flash point was 148.0 °C.

As for `CCCCCCCCO` [1-Octanol], the flash point came to 86.6 °C.

As for `C=CCCCCCC` [1-Octene], the flash point is 11.5 °C.

`CCCO` [1-PROPANOL] gave a flash point of 18 °C.

`CCC(C)CCO` (stereo unspecified) [1-Pentanol, 3-methyl-] yielded a flash point of 58.0 °C.

`CCCCCCc1ccccc1` [1-Phenylhexane] had a flash point of 83.0 °C.

`CCCCCCCCCCCCCCO` [1-TETRADECANOL] had a flash point of 143 °C.

Consider `CCCCCCCCCCCCCCO` [1-Tetradecanol], for which the flash point was found to be 148.0 °C.

As for `Cc1cccc(O)c1C` [2,3-Dimethylphenol], the flash point was 95.0 °C.

As to `CC(C)=C(C)C` [2-Butene, 2,3-dimethyl-], the flash point is -16.0 °C.

Turning to `CC(C)Cl` [2-Chloropropane], the flash point is -34.9 °C.

The compound `CCC(CC)CO` [2-ETHYL-1-BUTANOL] displayed a flash point of 57 °C.

`CCCCCC(C)O` (stereo unspecified) [2-Heptanol] yielded a flash point of 59.0 °C.

With `CC(=O)CCC(C)C` [2-Hexanone, 5-methyl-], the flash point is 35.0 °C.

Compound `CCCCC(C)=O` [2-Hexanone] registered a flash point of 23.0 °C.

With `CCCCCCCC(C)=O` [2-NONANONE], the flash point came to 64.0 °C.

In turn, `CCCCCCCC(C)=O` [2-Nonanone] returned a flash point of 72.4 °C.

The compound `CCCCCCC(C)=O` [2-OCTANONE] registered a flash point of 51.0 °C.

In the case of `CCCCCCC(C)=O` [2-Octanone], the flash point was determined as 56.0 °C.

For the compound `CCC(C)C(C)=O` (stereo unspecified) [2-Pentanone, 3-methyl-], the flash point is 12.0 °C.

Consider `CCC(C)CC(C)(C)CC` (stereo unspecified) [3,3,5-TRIMETHYLHEPTANE], for which the flash point worked out at 28 °C.

The compound `CCC(C)CC(C)(C)CC` (stereo unspecified) [3,3,5-Trimethylheptane] yielded a flash point of 31 °C.

`CCCCC(=O)CC` [3-Heptanone] displayed a flash point of 37.0 °C.

As for `CC(=O)C(C)C` [3-Methyl-2-butanone], the flash point is -1.0 °C.

`CCCCCCC(=O)CC` [3-Nonanone]: the flash point is 66.0 °C.

As to `CCC(=O)C(C)C` [3-Pentanone, 2-methyl-], the flash point was 13.0 °C.

Consider `CCC(=O)CC` [3-Pentanone], for which the flash point stood at 7.0 °C.

As for `CCCC(=O)CCC` [4-HEPTANONE], the flash point came out at 48.0 °C.

`CCCC(=O)CCC` [4-Heptanone] came in with a flash point of 34.0 °C.

As to `CCCCC(=O)CCCC` [5-Nonanone], the flash point was 65.0 °C.

On to `C=CCOC(C)=O` [ALLYL ACETATE], for which the flash point stood at 22.2 °C.

On to `CCCCCCCCOC(C)=O` [Acetic acid octyl ester], for which the flash point is 83.0 °C.

Regarding `CCCCCCCc1ccccc1` [Benzene, heptyl-], the flash point is 97.5 °C.

`CCCCCc1ccccc1` [Benzene, pentyl-]: the flash point was 66.0 °C.

Turning to `CCCC#N` [Butanenitrile], the flash point was determined as 18.0 °C.

Consider `CCCCOC(=O)CCC` [Butanoic acid, butyl ester], for which the flash point stood at 50.0 °C.

Compound `CCCCOC(C)=O` [Butyl acetate] displayed a flash point of 25.0 °C.

Regarding `CCCC=O` [Butyraldehyde], the flash point was -11.0 °C.

As to `CCCC(=O)O` [Butyric acid], the flash point worked out at 72.0 °C.

`NC1CCCCC1` [Cyclohexanamine] returned a flash point of 26.5 °C.

`C[C@H]1CC[C@@H](C)CC1` [Cyclohexane, 1,4-dimethyl-, cis-] had a flash point of 11.2 °C.

Compound `CCC1CCCCC1` [Cyclohexane, ethyl-] registered a flash point of 18.0 °C.

For the compound `CCCCCCCCCC` [Decane], the flash point was found to be 49.8 °C.

In the case of `CCCCCCCCCCO` [Decyl alcohol], the flash point turned out to be 104.0 °C.

Regarding `c1ccc(Oc2ccccc2)cc1` [Diphenyl ether], the flash point was 115.0 °C.

Compound `CC(Cl)Cl` [Ethane, 1,1-dichloro-] showed a flash point of -10.0 °C.

As for `CCOC(C)OCC` [Ethane, 1,1-diethoxy-], the flash point is 13.0 °C.

In the case of `CCCCCC(C)(C)C` [Heptane, 2,2-dimethyl-], the flash point turned out to be 19.0 °C.

`CCCCC(C)CC` (stereo unspecified) [Heptane, 3-methyl-] displayed a flash point of 6.0 °C.

As to `C#CCO` [Propargyl alcohol], the flash point in data set [1] was found to be 36.00 °C.

Regarding `CC1COC(=O)O1` (stereo unspecified) [Propylene carbonate], in data set [1], the flash point was found to be 135.00 °C.

`C=CC` [Propylene]: in data set [1], the flash point is -108.00 °C.

In the case of `O=Cc1ccccc1O` [Salicylaldehyde], the flash point in data set [1] came to 78.00 °C.

Compound `C=Cc1ccccc1` [Styrene] gave a flash point in data set [1] of 31.00 °C.

In data set [1], `N#CCCC#N` [Succinonitrile] yielded a flash point of 132.00 °C.

For the compound `CCCCN(CCCC)CCCC` [Tri-n-butyl amine], the flash point in data set [1] was determined as 86.00 °C.

In data set [1], `OCCOCCOCCO` [Triethylene glycol] came in with a flash point of 177.00 °C.

For the compound `NCCNCCNCCN` [Triethylene-tetramine], the flash point in data set [1] is 135.00 °C.

`CCCN(CCC)CCC` [Tripropylamine]: the flash point in data set [1] turned out to be 41.00 °C.

`C=COC(C)=O` [Vinyl acetate] yielded a flash point in data set [1] of -8.00 °C.

`C=C(Cl)Cl` [Vinylidene chloride] showed a flash point in data set [1] of -15.00 °C.

Compound `O=[N+]([O-])c1cccc2ccccc12` [alpha-Nitronaphthalene] gave a flash point in data set [1] of 164.00 °C.

In data set [1], `CC(=O)OCCC(C)C` [iso-Amyl acetate] registered a flash point of 23.00 °C.

Compound `CC(C)CCOC=O` [iso-Amyl formate] returned a flash point in data set [1] of 26.00 °C.

Consider `CC(C)Cc1ccccc1` [iso-Butyl benzene], for which the flash point in data set [1] came to 52.00 °C.

`CCC(C)C` [iso-Pentane]: in data set [1], the flash point is -51.00 °C.

`C=C(C)OC(C)=O` [iso-Propenyl acetate] showed a flash point in data set [1] of 16.00 °C.

Compound `CC(=O)OC(C)C` [iso-Propyl acetate] had a flash point in data set [1] of 4.00 °C.

The compound `CC(C)OC(=O)c1ccccc1` [iso-Propyl benzoate] came in with a flash point in data set [1] of 99.00 °C.

`Cc1cccc(O)c1` [m-Cresol] showed a flash point in data set [1] of 94.00 °C.

On to `CCCCOC(C)=O` [n-Butyl acetate], for which the flash point in data set [1] was 27.00 °C.

On to `CCCCc1ccccc1` [n-Butyl benzene], for which, in data set [1], the flash point stood at 71.00 °C.

On to `CCCCCl` [n-Butyl chloride], for which the flash point in data set [1] amounted to 7.00 °C.

As to `CCCC(=O)O` [n-Butyric acid], the flash point in data set [1] amounted to 66.00 °C.

Consider `CCCC(=O)OC(=O)CCC` [n-Butyric anhydride], for which the flash point in data set [1] amounted to 88.00 °C.

Consider `CCCC#N` [n-Butyronitrile], for which the flash point in data set [1] came out at 26.00 °C.

Turning to `CCNc1ccccc1` [n-Ethyl aniline], the flash point in data set [1] was 85.00 °C.

`CCCCCCO` [n-Hexanol]: the flash point in data set [1] stood at 60.00 °C.

`CCCO` [n-Propyl alcohol] had a flash point in data set [1] of 15.00 °C.

The compound `Cc1ccccc1O` [o-Cresol] yielded a flash point in data set [1] of 81.00 °C.

In turn, `Clc1ccccc1Cl` [o-Dichlorobenzene] returned a flash point in data set [1] of 66.00 °C.

`O=[N+]([O-])c1ccccc1-c1ccccc1` [o-Nitrobiphenyl] had a flash point in data set [1] of 143.00 °C.

With `Oc1ccccc1-c1ccccc1` [o-Phenyl phenol], the flash point in data set [1] was determined as 124.00 °C.

Compound `Cc1ccccc1C` [o-Xylene] displayed a flash point in data set [1] of 32.00 °C.

For the compound `Oc1ccc(Cl)cc1` [p-Chlorophenol], the flash point in data set [1] is 121.00 °C.

Compound `Cc1ccc(C(C)C)cc1` [p-Cymene] registered a flash point in data set [1] of 47.00 °C.

For `C=C(C)C1CC=C(C)CC1` (stereo unspecified) [p-Mentha-1,8-diene], the flash point in data set [1] is 45.00 °C.

In turn, `Cc1ccc([N+](=O)[O-])cc1` [p-Nitrotoluene] gave a flash point in data set [1] of 106.00 °C.

In the case of `Nc1ccc(N)cc1` [p-Phenylenediamine], in data set [1], the flash point was found to be 156.00 °C.

`CCC(C)OC(C)=O` (stereo unspecified) [sec-Butyl acetate] registered a flash point in data set [1] of 31.00 °C.

In data set [1], `CC(C)(C)OOC(=O)c1ccccc1` [tert-Butyl perbenzoate] came in with a flash point of 88.00 °C.
